In patent US8741836B2, “Polypeptides” (Novo Nordisk A/S, priority 2011, dated 2014):
Starred links: 1 amine or outer side, 2 acyl side, 3 side chain; linkers in the order of their positions; H or OH if unused. Positions of bridges follow the written chain, without caps; N, C: chain ends. Residues, ends and D or L forms follow the SMILES beside them. *: point of attachment. C20 diacid = O=C(O)CCCCCCCCCCCCCCCCCCC(=O)*; C18 diacid = O=C(O)CCCCCCCCCCCCCCCCC(=O)*; γGlu = O=C(O)[C@H](CCC(=O)[*:2])N[*:1]

Tests used:
ad libitum fed rat = test: Assay (I) efficacy testing on appetite (food intake) using an ad libitum fed rat model; type: in vivo, Sprague Dawley (SD) rats; details: 3 nmol/kg
Source text: In the following examples reference is made to the following Assays: • Assay (I)—Experimental protocol for efficacy testing on appetite using an ad libitum fed rat model • ASSAY (II)a—Functional assay—Human calcitonin and amylin receptor assay • ASSAY (II)b—Functional assay—Rat calcitonin and rat amylin receptor assays • ASSAY (III)—ThT fibrillation assays for the assessment of physical stability of protein formulations • ASSAY (IV)—Determination of solubility • ASSAY (V)—Determination of binding to the human amylin receptor • ASSAY (VI)—Determination of the binding to the rat amylin receptor • ASSAY (VII)—Determination of binding to the human calcitonin receptor • ASSAY (VIII)—Determination of binding to the rat calcitonin receptor • ASSAY (IX)—pK—Determination of T½ in mini-pig • ASSAY (X)—pK—Determination of T½ in rat Assay (I)—Experimental protocol for Efficacy Testing on Appetite Using an Ad Libitum Fed Rat Model
Sprague Dawley (SD) rats from Taconic Europe, Denmark are used for the experiments. The rats have a body weight 200-250 g at the start of experiment. The rats arrive at least 10-14 days before start of experiment to allow acclimatization to experimental settings. During this period the animals are handled at least 2 times. After arrival rats are housed individually for one week in a reversed light/dark phase (meaning that lights are off during daytime and on during nighttime) […]. Since rats are normally active and eat their major part of their daily food intake during the dark period, rats are dosed in the morning right before lights are turned off. This set-up results in the lowest data variation and highest test sensitivity. The experiment is conducted in the rats' home cages and rats have free access to food and water throughout the acclimatization period and the experiment period. Each dose of derivative is tested in a group of 5-8 rats. A vehicle group of 6-8 rats is included in each set of testing. Rats are dosed once according to body weight with a 0.01-3 mg/kg solution administered intraperitoneally (ip), orally (po) or subcutaneously (sc). The time of dosing is recorded for each group. After dosing, the rats are returned to their home cages, where they then have access to food and water. The food consumption is recorded individually continuously by on-line registration or manually every hour for 7 hours, and then after 24 h and sometimes 48 h. At the end of the experimental session, the animals are euthanised.
The individual data are recorded in Microsoft excel sheets. Outliers are excluded after applying the Grubbs statistical evaluation test for outliers, and the result is presented graphically using the GraphPad Prism program.

[1] = Assay (III) ThT fibrillation assay for physical stability; type: physicochemical; details: for ThT pH 4.0 lag time: pH 4.0, ThT fibrillation assay
Summary of the method: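 Freshly prepared, pH-adjusted formulations with 1 μM ThT incubated at 37 °C under 960 rpm orbital shaking (1 mm), fluorescence (ex 444, em 485 nm) read every 20 min. […] Peptide content before and after measured by reverse-phase HPLC against pramlintide standard.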

ThT pH 4.0 lag time (physical stability in fibrillogenesis assay) [1] [h] | ThT pH 4.0 lag time [1] [h] | Structure (SMILES) | Food intake reduction 0-24 h 3 nmol/kg (%) (ad libitum fed rat; 0-24 h) | Food intake reduction 24-48 h 3 nmol/kg (%) (ad libitum fed rat; 24-48 h)
– | – | CC[C@H](C)[C@H](NC(=O)[C@@H]1CCCN1C(=O)CNC(=O)[C@H](Cc1ccccc1)NC(=O)[C@H](CC(N)=O)NC(=O)[C@H](CC(N)=O)NC(=O)[C@H](CO)NC(=O)[C@H](CO)NC(=O)[C@H](Cc1c[nH]cn1)NC(=O)[C@H](Cc1c[nH]cn1)NC(=O)[C@H](CC(C)C)NC(=O)[C@H](Cc1ccccc1)NC(=O)[C@H](CCC(=O)O)NC(=O)[C@H](C)NC(=O)[C@H](CC(C)C)NC(=O)[C@H](CCCNC(=N)N)NC(=O)[C@H](CCC(N)=O)NC(=O)[C@@H](NC(=O)[C@H](C)NC(=O)[C@@H]1CSSC[C@H](NC(=O)[C@H](CCCCN)NC(=O)CC[C@H](NC(=O)CCCCCCCCCCCCCCCCC(=O)O)C(=O)O)C(=O)N[C@@H](CC(N)=O)C(=O)N[C@@H]([C@@H](C)O)C(=O)N[C@@H](C)C(=O)N[C@@H]([C@@H](C)O)C(=O)N1)[C@@H](C)O)C(=O)N[C@@H](CC(C)C)C(=O)N1CCC[C@H]1C(=O)N1CCC[C@H]1C(=O)N[C@H](C(=O)N[C@@H](CC(N)=O)C(=O)N[C@H](C(=O)NCC(=O)N[C@@H](CO)C(=O)N[C@@H](CC(N)=O)C(=O)N[C@H](C(=O)N[C@@H](Cc1ccc(O)cc1)C(N)=O)[C@@H](C)O)C(C)C)[C@@H](C)O [Example 46, N-alpha-[(S)-4-Carboxy-4-(17-carboxyheptadecanoylamino)butyryl]-[Glu14,His17]-pramlintide] ({C18 diacid-γGlu}-KCNTATCATQRLAEFLHHSSNNFGPILPPTNVGSNTY-NH2; disulfide 2-7 (inferred); C-terminus assumed) | 54 | 27
>45 | >45 | CC[C@H](C)[C@H](NC(=O)[C@@H]1CCCN1C(=O)CNC(=O)[C@H](Cc1ccccc1)NC(=O)[C@H](CC(N)=O)NC(=O)[C@H](CCC(N)=O)NC(=O)[C@H](CO)NC(=O)[C@H](CO)NC(=O)[C@H](Cc1c[nH]cn1)NC(=O)[C@H](CCCNC(=N)N)NC(=O)[C@H](CC(C)C)NC(=O)[C@H](Cc1ccccc1)NC(=O)[C@H](CCC(=O)O)NC(=O)[C@H](C)NC(=O)[C@H](CC(C)C)NC(=O)[C@H](CCCNC(=N)N)NC(=O)[C@H](CCC(N)=O)NC(=O)[C@@H](NC(=O)[C@H](C)NC(=O)[C@@H]1CSSC[C@H](NC(=O)[C@H](CCC(=O)O)NC(=O)[C@H](CCCNC(=N)N)NC(=O)[C@H](CCC(=O)O)NC(=O)CC[C@H](NC(=O)CCCCCCCCCCCCCCCCCCC(=O)O)C(=O)O)C(=O)N[C@@H](CC(N)=O)C(=O)N[C@@H]([C@@H](C)O)C(=O)N[C@@H](C)C(=O)N[C@@H]([C@@H](C)O)C(=O)N1)[C@@H](C)O)C(=O)N[C@@H](CC(C)C)C(=O)N1CCC[C@H]1C(=O)N1CCC[C@H]1C(=O)N[C@H](C(=O)N[C@@H](CC(N)=O)C(=O)N[C@H](C(=O)NCC(=O)N[C@@H](CO)C(=O)N[C@@H](CCC(N)=O)C(=O)N[C@H](C(=O)N1CCC[C@H]1C(N)=O)[C@@H](C)O)C(C)C)[C@@H](C)O [Example 162, N-alpha-[(S)-4-Carboxy-4-(19-carboxynonadecanoylamino)butyryl]-Glu-Arg-[Glu1,Glu14,Arg17,Gln21,Gln35,Pro37]-pramlintide] ({C20 diacid-γGlu}-ERECNTATCATQRLAEFLRHSSQNFGPILPPTNVGSQTP-NH2; disulfide 4-9 (inferred); C-terminus assumed) | – | –
>45 | >45 | CC[C@H](C)[C@H](NC(=O)[C@@H]1CCCN1C(=O)CNC(=O)[C@H](Cc1ccccc1)NC(=O)[C@H](CC(N)=O)NC(=O)[C@H](CC(N)=O)NC(=O)[C@H](CO)NC(=O)[C@H](CO)NC(=O)[C@H](Cc1c[nH]cn1)NC(=O)[C@H](CCCNC(=N)N)NC(=O)[C@H](CC(C)C)NC(=O)[C@H](Cc1ccccc1)NC(=O)[C@H](CCC(=O)O)NC(=O)[C@H](C)NC(=O)[C@H](CC(C)C)NC(=O)[C@H](CCCNC(=N)N)NC(=O)[C@H](CCC(N)=O)NC(=O)[C@@H](NC(=O)[C@H](C)NC(=O)[C@@H]1CSSC[C@H](NC(=O)[C@H](CCCCN)NC(=O)[C@H](CCC(=O)O)NC(=O)CC[C@H](NC(=O)CCCCCCCCCCCCCCCCCCC(=O)O)C(=O)O)C(=O)N[C@@H](CC(N)=O)C(=O)N[C@@H]([C@@H](C)O)C(=O)N[C@@H](C)C(=O)N[C@@H]([C@@H](C)O)C(=O)N1)[C@@H](C)O)C(=O)N[C@@H](CC(C)C)C(=O)N1CCC[C@H]1C(=O)N1CCC[C@H]1C(=O)N[C@H](C(=O)N[C@@H](CC(N)=O)C(=O)N[C@H](C(=O)NCC(=O)N[C@@H](CO)C(=O)N[C@@H](Cc1c[nH]cn1)C(=O)N[C@H](C(=O)N[C@@H](Cc1ccc(O)cc1)C(N)=O)[C@@H](C)O)C(C)C)[C@@H](C)O [Example 58, N-alpha-[(S)-4-Carboxy-4-(19-carboxynonadecanoylamino)butyryl]-Glu-[Glu14,Arg17,His35]-pramlintide] ({C20 diacid-γGlu}-EKCNTATCATQRLAEFLRHSSNNFGPILPPTNVGSHTY-NH2; disulfide 3-8 (inferred); C-terminus assumed) | – | –
– | >45 | CC[C@H](C)[C@H](NC(=O)[C@@H]1CCCN1C(=O)CNC(=O)[C@H](Cc1ccccc1)NC(=O)[C@H](CC(N)=O)NC(=O)[C@H](CC(N)=O)NC(=O)[C@H](CO)NC(=O)[C@H](CO)NC(=O)[C@H](Cc1c[nH]cn1)NC(=O)[C@H](Cc1c[nH]cn1)NC(=O)[C@H](CC(C)C)NC(=O)[C@H](Cc1ccccc1)NC(=O)[C@H](CCC(=O)O)NC(=O)[C@H](C)NC(=O)[C@H](CC(C)C)NC(=O)[C@H](CCCNC(=N)N)NC(=O)[C@H](CCC(N)=O)NC(=O)[C@@H](NC(=O)[C@H](C)NC(=O)[C@@H]1CSSC[C@H](NC(=O)[C@H](CCCCN)NC(=O)CC[C@H](NC(=O)CCCCCCCCCCCCCCCCCCC(=O)O)C(=O)O)C(=O)N[C@@H](CC(N)=O)C(=O)N[C@@H]([C@@H](C)O)C(=O)N[C@@H](C)C(=O)N[C@@H]([C@@H](C)O)C(=O)N1)[C@@H](C)O)C(=O)N[C@@H](CC(C)C)C(=O)N1CCC[C@H]1C(=O)N1CCC[C@H]1C(=O)N[C@H](C(=O)N[C@@H](CC(N)=O)C(=O)N[C@H](C(=O)NCC(=O)N[C@@H](Cc1c[nH]cn1)C(=O)N[C@@H](CC(N)=O)C(=O)N[C@H](C(=O)N[C@@H](Cc1ccc(O)cc1)C(N)=O)[C@@H](C)O)C(C)C)[C@@H](C)O [Example 115, N-alpha-[(S)-4-Carboxy-4-(19-carboxynonadecanoylamino)butyryl]-[Glu14,His17,His34]-pramlintide] ({C20 diacid-γGlu}-KCNTATCATQRLAEFLHHSSNNFGPILPPTNVGHNTY-NH2; disulfide 2-7 (inferred)) | – | –
>45 | – | CC[C@H](C)[C@H](NC(=O)[C@@H]1CCCN1C(=O)CNC(=O)[C@H](Cc1ccccc1)NC(=O)[C@H](CO)NC(=O)[C@H](CO)NC(=O)[C@H](CO)NC(=O)[C@H](CO)NC(=O)[C@H](CCCNC(=N)N)NC(=O)[C@H](Cc1cnc[nH]1)NC(=O)[C@H](CC(C)C)NC(=O)[C@H](Cc1ccccc1)NC(=O)[C@H](CCC(=O)O)NC(=O)[C@H](C)NC(=O)[C@H](CC(C)C)NC(=O)[C@H](CCCNC(=N)N)NC(=O)[C@H](CCC(N)=O)NC(=O)[C@@H](NC(=O)[C@H](C)NC(=O)[C@@H]1CSSC[C@H](NC(=O)[C@H](Cc2cnc[nH]2)NC(=O)CC[C@H](NC(=O)CCCCCCCCCCCCCCCCCCC(=O)O)C(=O)O)C(=O)N[C@@H](CC(N)=O)C(=O)N[C@@H]([C@@H](C)O)C(=O)N[C@@H](C)C(=O)N[C@@H]([C@@H](C)O)C(=O)N1)[C@@H](C)O)C(=O)N[C@@H](CC(C)C)C(=O)N1CCC[C@H]1C(=O)N1CCC[C@H]1C(=O)N[C@H](C(=O)N[C@@H](CC(=O)O)C(=O)N[C@H](C(=O)NCC(=O)N[C@@H](CO)C(=O)N[C@@H](CC(=O)O)C(=O)N[C@H](C(=O)N[C@@H](Cc1ccc(O)cc1)C(N)=O)[C@@H](C)O)C(C)C)[C@@H](C)O [Example 9, N-alpha-[(S)-4-Carboxy-4-(19-carboxynonadecanoylamino)butyryl]-[His1,Glu14,His17,Arg18,Ser21,Ser22,Asp31,Asp35]-pramlintide] ({C20 diacid-γGlu}-HCNTATCATQRLAEFLHRSSSSFGPILPPTDVGSDTY-NH2; disulfide 2-7) | – | –
